From article PMC10574094, “Discovery of a SHP2 Degrader with In Vivo Anti-Tumor Activity” (Molecules, 2023)
Several values for one entry are separate records, joined by “and”; a condition that tells them apart may be missing. Equal values may be shown once. Entries after “also recorded” stand apart in the source; their conditions may differ.

Tests used:
[1] = test system: KYSE-520, SKBR3, U2OS, MCF7, H358 and A549 cells; assay: Colony formation assay; assay type: cell-based; settings: 3 weeks treatment
Method: (§1) HEK293, SKBR3, U2OS, MCF7 and A549 cells were grown in DMEM supplemented with 10% FBS, penicillin (50 units/mL), and streptomycin (50 μg/mL) in a 37 °C incubator containing 5% CO2. KYSE-520 and H358 cells were grown in RPMI-1640 supplemented with 10% FBS, penicillin (50 units/mL), and streptomycin (50 μg/mL) in a 37 °C incubator containing 5% CO2. For western-blot analysis, protein samples were separated by SDS-PAGE, transferred to nitrocellulose membranes, and incubated overnight at 4 °C with corresponding primary antibodies diluted in 5% BSA in phosphate-buffered saline Tween (PBST). SuperSignal™ West Pico PLUS (PI34580; Thermo Scientific) was used to visualize the antibodies in the bioanalytical imaging system (Azure Biosystems c500). Anti-p-ERK1/2 (T202/Y204) (4370), and anti-ERK1/2 (4696) were purchased from Cell Signaling Technology. Anti-GAPDH (sc-365062), anti-SHP2 (sc-7384), anti-SHP1 (sc-7289), and anti-Actin (sc-8432) antibodies were purchased from Santa Cruz. Anti-PTP1B (ab244207) antibody was purchased from Abcam. For colony formation assay, a total of approximately 200–500 cells were seeded to each well in a 12-well plate. The wells were then treated with DMSO, compound P9 and 3 at 37 °C for 3 weeks, gently washed, and stained with crystal violet.

[2] = Tolerability and body weight in xenograft study; assay type: in vivo; settings: mice, 25 mg/kg or 50 mg/kg daily IP
Method: (§2) Experiments on mice were carried out in accordance with the regulations of the Institutional Animal Care and Use Committees at Purdue University. All mice were housed under pathogen-free conditions in the animal facility and received autoclaved water and food. Eight to ten weeks-old Nude mice were used in the study.
For the xenograft tumor study, KYSE-520 cells were suspended in PBS and a total of 3 × 10^6 cells (100 μL) were subcutaneously implanted into both the left and right flank using a 27-gauge needle. Tumor volume was calculated using the formula V = (W^2 × L)/2 for caliper measurements. Once the tumor volume reaches 200 mm^3, daily intraperitoneal injection of either control, 25 mg/kg or 50 mg/kg of compound P9 was performed. Mice were sacrificed after injection for 18 days, and tumors were collected for biochemical analysis.

SHP2 = molecular target: T1, SHP2 (Homo sapiens, UniProt Q06124); assay: SHP2 degradation by Western blotting in KYSE-520 cells; assay type: cell-based; parameters: endogenous in cells; host or cells: KYSE-520; settings: 16 h
T1 sequence (Q06124 1-593): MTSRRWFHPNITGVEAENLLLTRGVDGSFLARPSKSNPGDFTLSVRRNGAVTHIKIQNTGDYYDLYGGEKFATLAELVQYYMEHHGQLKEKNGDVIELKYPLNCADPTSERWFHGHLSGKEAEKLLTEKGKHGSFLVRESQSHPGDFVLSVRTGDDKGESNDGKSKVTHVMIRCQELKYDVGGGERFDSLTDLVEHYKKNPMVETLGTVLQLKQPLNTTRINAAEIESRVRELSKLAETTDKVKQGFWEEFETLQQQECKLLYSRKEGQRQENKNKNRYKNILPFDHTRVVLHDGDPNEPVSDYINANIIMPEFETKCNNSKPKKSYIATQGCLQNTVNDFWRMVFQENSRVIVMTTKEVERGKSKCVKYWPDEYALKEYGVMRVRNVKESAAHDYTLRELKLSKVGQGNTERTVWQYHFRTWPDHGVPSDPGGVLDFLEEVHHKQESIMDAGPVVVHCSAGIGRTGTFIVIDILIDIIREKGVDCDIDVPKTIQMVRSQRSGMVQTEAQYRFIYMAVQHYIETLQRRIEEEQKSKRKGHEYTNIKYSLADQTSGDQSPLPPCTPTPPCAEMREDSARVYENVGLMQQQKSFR
Method: as §1

KYSE-520 cells = assay: CCK-8 cell proliferation assay; assay type: cell-based; settings: Homo sapiens, 168 h; KYSE-520, CCK-8, 7 days; read-out: growth inhibition IC50
Method: The cell proliferation inhibition EC50 was determined by CCK-8 assay. KYSE-520 cells were seeded at 5 × 10^3 cells/well in 96 well plates. After 24 h, P9 was added to the medium starting at 80 μM in a 2-fold dilution rate of 0.16 μM. After 7 days, 10 μL of CCK-8 test solution (APExBIO Technology, Houston, TX, USA) was added into each well and incubated for 2 h at 37 °C. The optical density (OD) at 450 nm was measured with a microplate reader (Molecular Device, Sunnyvale, CA, USA). The cell viability rate at different concentrations of P9 treatment was determined with Prism, version 9.5.1 (GraphPad, San Diego, CA, USA).

[3] = Pharmacokinetics in mice, single IP injection; assay type: in vivo; settings: for Plasma concentration / concentration at 0.5 h / concentration at 1 h / concentration at 2 h / concentration at 3 h / concentration at 6 h: individual animals; for concentration at 0.5 h / concentration at 1 h / concentration at 2 h / concentration at 3 h / concentration at 6 h / Cmax / half-life / AUC / Tmax: plasma; for concentration at 0.5 h / concentration at 1 h / concentration at 2 h / concentration at 3 h / concentration at 6 h: intraperitoneal; for Cmax / half-life / AUC / Tmax / t1/2: mice
Method: as §2
For pharmacokinetic studies, mice were administered a single dose of P9 at 25 or 50 mg/kg via IP injection. Blood samples were collected through the tail vein at indicated time points after injection. Isoflurane was used as an anesthetic. All blood samples were centrifuged at 1500 g for 5 min, and plasma was separated and stored at –80 °C until analysis by a validated method based on reversed-phase liquid chromatography coupled to mass-spectrometric detection (LC/MS) using a previously published procedure.

[4] = Nude, mouse, ip, 25 mg/kg, single IP 25 mg/kg
[5] = Nude, mouse, ip, 50 mg/kg, single IP 50 mg/kg
[6] = Nude, mouse, single IP 25 mg/kg
[7] = Nude, mouse, single IP 50 mg/kg

Cc1ncsc1-c1ccc([C@H](C)NC(=O)[C@@H]2C[C@@H](O)CN2C(=O)[C@@H](NC(=O)CCCCCCCCCN2CCN(C(=O)CCCCCC3(CN)CCN(c4cnc(Sc5cccc(Cl)c5Cl)c(N)n4)CC3)CC2)C(C)(C)C)cc1 [P9, (2S,4R)-1-((S)-2-(10-(4-(6-(1-(6-amino-5-((2,3-dichlorophenyl)thio)pyrazin-2-yl)-4-(aminomethyl)piperidin-4-yl)hexanoyl)piperazin-1-yl)decanamido)-3,3-dimethylbutanoyl)-4-hydroxy-N-((S)-1-(4-(4-methylthiazol-5-yl)phenyl)ethyl)pyrrolidine-2-carboxamide]
growth inhibition in colony formation assay compared with compound 3 [1]: improved efficacy in inhibiting the growth of these cancer cells | tolerability [2]: well tolerated | animal body weight ([2]; during treatment): preserved; also recorded: no significant effect on mice body weight | DC50 (SHP2): ~130 nM | IC50 (KYSE-520 cells): 640 ± 130 nM | Plasma concentration ([3]; 25 mg/kg IP, 0.5 h): 520 nM and 750 nM | Plasma concentration ([3]; 25 mg/kg IP, 1 h): 1200 nM and 1320 nM | Plasma concentration ([3]; 25 mg/kg IP, 2 h): 1090 nM and 930 nM | Plasma concentration ([3]; 25 mg/kg IP, 3 h): 620 nM and 590 nM | Plasma concentration ([3]; 25 mg/kg IP, 6 h): 410 nM and 390 nM | Plasma concentration ([3]; 25 mg/kg IP, 24 h): 130 nM and 180 nM and 60 nM | Plasma concentration ([3]; 50 mg/kg IP, 0.5 h): 1820 nM and 1960 nM | Plasma concentration ([3]; 50 mg/kg IP, 1 h): 2700 nM and 2550 nM | Plasma concentration ([3]; 50 mg/kg IP, 2 h): 1760 nM and 1700 nM | Plasma concentration ([3]; 50 mg/kg IP, 3 h): 1220 nM and 1150 nM | Plasma concentration ([3]; 50 mg/kg IP, 6 h): 700 nM and 680 nM | Plasma concentration ([3]; 50 mg/kg IP, 24 h): 160 nM and 240 nM and 100 nM | concentration at 0.5 h ([3]; Nude, mouse, 25 mg/kg, 25 mg/kg IP, 0.5 h): 560 nM | concentration at 1 h ([3]; Nude, mouse, 25 mg/kg, 25 mg/kg IP, 1 h): 1020 nM | concentration at 2 h ([3]; Nude, mouse, 25 mg/kg, 25 mg/kg IP, 2 h): 920 nM | concentration at 3 h ([3]; Nude, mouse, 25 mg/kg, 25 mg/kg IP, 3 h): 550 nM | concentration at 6 h ([3]; Nude, mouse, 25 mg/kg, 25 mg/kg IP, 6 h): 360 nM | concentration at 0.5 h ([3]; Nude, mouse, 50 mg/kg, 50 mg/kg IP, 0.5 h): 1760 nM | concentration at 1 h ([3]; Nude, mouse, 50 mg/kg, 50 mg/kg IP, 1 h): 2510 nM | concentration at 2 h ([3]; Nude, mouse, 50 mg/kg, 50 mg/kg IP, 2 h): 1660 nM | concentration at 3 h ([3]; Nude, mouse, 50 mg/kg, 50 mg/kg IP, 3 h): 1030 nM | concentration at 6 h ([3]; Nude, mouse, 50 mg/kg, 50 mg/kg IP, 6 h): 550 nM | Cmax [3, 4]: 1180 ± 130 nM | half-life [3, 4]: 3.71 ± 0.72 h | Cmax [3, 5]: 2510 ± 190 nM | half-life [3, 5]: 3.01 ± 0.48 h | AUC [3, 6]: 8.51 ± 0.6 µM·h | Tmax [3, 6]: 2 h | AUC [3, 7]: 15.1 ± 0.99 µM·h | Tmax [3, 7]: 2 h | Cmax ([3]; single IP 25 mg/kg, 25 mg/kg): 1200 ± 100 nM | t1/2 ([3]; single IP 25 mg/kg, 25 mg/kg): 3.7 ± 0.7 h | Cmax ([3]; single IP 50 mg/kg, 50 mg/kg): 2500 ± 200 nM | t1/2 ([3]; single IP 50 mg/kg, 50 mg/kg): 3.0 ± 0.5 h
